Columns and labels:
Assay type in all cases: cell-based, mouse
[1] = test system: SACK-responsive, Pdx1-positive Panstra-25 pancreatic stem cells; test: Gene-free iPSC reprogramming on STO feeders, colony phenotypes, Panstra-25; details: for Estimated gene-free iPSC colony formation efficiency, ES, AP+ (iPSC state) / Estimated gene-free iPSC colony formation efficiency, ES, AP− / Estimated gene-free iPSC colony formation efficiency, Fl, AP+ / Estimated gene-free iPSC colony formation efficiency, Fl, AP− / Phenotype ES, AP+ (iPSC state) of individual cell clones following expansion, clones/total / Phenotype ES, AP+ (iPSC state) of individual cell clones following expansion, percent / Phenotype ES, AP− of individual cell clones following expansion, clones/total / Phenotype ES, AP− of individual cell clones following expansion, percent / Phenotype Fl, AP+ of individual cell clones following expansion, clones/total / Phenotype Fl, AP+ of individual cell clones following expansion, percent / Phenotype Fl, AP− of individual cell clones following expansion, clones/total / Phenotype Fl, AP− of individual cell clones following expansion, percent: Panstra-25, 1 mM Xn
Description: (§1) Each tested SACK-derived cell strain was cultured on STO cell feeder monolayers in control medium with 10% DFBS, dialyzed fetal bovine serum (DFBS) or either of two commercial media for culture of murine embryonic stem cells (ESCs) and for the culture of reprogrammed cells such as iPSCs. Each medium condition was evaluated with or without supplementation with 1 mM xanthine (Xn). P/S denotes routine use of the antibiotics penicillin and streptomycin.
(§2) The method is an original pharmacological procedure for producing pluripotent stem cells. Cell strains derived in xanthine (Xn)-supplemented medium, by the method of suppression of asymmetric cell kinetics (SACK), were cultured in commercial media specified for the culture and/or production of pluripotent stem cells such as embryonic stem cells and iPSCs. Approximately 150,000 cells were plated on confluent STO cell feeders (i.e., mouse embryonic fibroblasts pre-treated with mitomycin C) in 10-cm culture dishes. In 2 weeks, iPSC-like cell colonies were detected.
(§3) To establish clonal strains, single colonies were picked, cultured in individual wells, and expanded for further study and cryo-preservation. A high fraction of the derived cell clones have morphological and biochemical properties indicative of iPSC cells.
(§4) Tissue-specific stem cells (e.g., Panstra-25 and Panstra-12 mouse pancreatic stem cell strains in the instant example) were cultured on mitomycin C-treated STO cell monolayers in commercial embryonic stem cell medium supplemented with the purine salvage base xanthine at 1 mM concentration (FIG. 4). Within 2-3 weeks of culture under otherwise standard conditions, cell colonies with embryonic stem cell-like morphology developed (FIG. 7B). These colonies were removed by mild trypsin treatment, transferred to individual cell culture wells prepared with STO cell feeders, and expanded in the respective embryonic stem cell culture medium supplemented with 1 mM xanthine (FIG. 5). The expanded cell clones expressed alkaline phosphatase (FIG. 8), a biochemical biomarker for the pluripotent phenotype of embryonic stem cells and iPSC cells. […] Xn supplementation increased the average production efficiency by as much as 3-fold (Table 6).

[2] = test system: SACK-responsive, Pdx1-negative Panstra-12 pancreatic stem cells; test: Gene-free iPSC reprogramming on STO feeders, colony phenotypes, Panstra-12; details: for Estimated gene-free iPSC colony formation efficiency, ES, AP+ (iPSC state) / Estimated gene-free iPSC colony formation efficiency, ES, AP− / Estimated gene-free iPSC colony formation efficiency, Fl, AP+ / Estimated gene-free iPSC colony formation efficiency, Fl, AP− / Phenotype ES, AP+ (iPSC state) of individual cell clones following expansion, clones/total / Phenotype ES, AP+ (iPSC state) of individual cell clones following expansion, percent / Phenotype ES, AP− of individual cell clones following expansion, clones/total / Phenotype ES, AP− of individual cell clones following expansion, percent / Phenotype Fl, AP+ of individual cell clones following expansion, clones/total / Phenotype Fl, AP+ of individual cell clones following expansion, percent / Phenotype Fl, AP− of individual cell clones following expansion, clones/total / Phenotype Fl, AP− of individual cell clones following expansion, percent: Panstra-12, 1 mM Xn
Description: as §1, §2, §3, §4

Panstra 11 = test: SACK responsiveness (cell kinetics, colony formation), Panstra 11; set-up: key: SACK-responsive (R); non-responsive (NR); details: Panstra 11, SACK agent Xn
Description: Cells were plated at colony forming density in SACK-free culture medium (Control) or culture medium supplemented to 1 mM concentration with the SACK agents xanthosine (Xs), xanthine (Xn), or hypoxanthine (Hx).
(§5) The terms “SACK-R” and “Xn-responsive” are used interchangeably. Xn-responsive cells are not transformed cells.
(§6) In the example, the differentiated cells are adult mouse pancreatic islet cells and Xn is the chemical compound used to suppress asymmetric cell kinetics (SACK). […] These Xn-treated and Xn-responsive cells then proceeded to express alkaline phosphatase, a known enzyme marker that is highly expressed in undifferentiated cells such as primordial germ cells (FIG. 8), after culture in media that support the proliferation of mouse pluripotent stem cells. Under these conditions, these Xn-expanded and Xn-responsive cells also multiply to form colonies that take on a clonal mouse embryonic stem cell-like morphology in culture, resembling a compact clump of round tiny cells, the clump having a smooth and well defined edge (FIG. 7B).
The SACK-derived clonal pancreatic cell strains have properties of either beta-cell precursors (Pdx1+) or more primitive pancreatic cells (Pdx1−). In the colony formation analyses, three hundred (300) cells were plated in replicate (n=3) 30-mm diameter culture dishes. […] Ten days later, plates were stained with crystal violet and colonies counted. […]

Panstra 56 = test: SACK responsiveness (cell kinetics, colony formation), Panstra 56; set-up: key: SACK-responsive (R); non-responsive (NR); details: Panstra 56, SACK agent Xn
Description: as §5, §6
The SACK-derived clonal pancreatic cell strains have properties of either beta-cell precursors (Pdx1+) or more primitive pancreatic cells (Pdx1−). In the colony formation analyses, three hundred (300) cells were plated in replicate (n=3) 30-mm diameter culture dishes. Twenty-four hours later, the culture medium was replaced with the medium supplemented with SACK agents as indicated. Ten days later, plates were stained with crystal violet and colonies counted. Xs, xanthosine; Xn, xanthine; Hx hypoxanthine.

## O=c1[nH]c(=O)c2[nH]cnc2[nH]1 [Xn, xanthine]
[1]; Panstra 25, SACK agent Xn
  iPSC (gene-free iPSC reprogramming): Yes
[1]; DFBS
  Estimated gene-free iPSC colony formation efficiency, ES, AP+ (iPSC state): 0.000%
  Estimated gene-free iPSC colony formation efficiency, ES, AP−: 0.000%
  Estimated gene-free iPSC colony formation efficiency, Fl, AP+: 0.000%
  Estimated gene-free iPSC colony formation efficiency, Fl, AP−: 0.059%
  Phenotype ES, AP+ (iPSC state) of individual cell clones following expansion, clones/total: 0/22
  Phenotype ES, AP+ (iPSC state) of individual cell clones following expansion, percent: 0%
  Phenotype ES, AP− of individual cell clones following expansion, clones/total: 0/22
  Phenotype ES, AP− of individual cell clones following expansion, percent: 0%
  Phenotype Fl, AP+ of individual cell clones following expansion, clones/total: 0/22
  Phenotype Fl, AP+ of individual cell clones following expansion, percent: 0%
  Phenotype Fl, AP− of individual cell clones following expansion, clones/total: 22/22
  Phenotype Fl, AP− of individual cell clones following expansion, percent: 100%
[1]; KOSR
  Estimated gene-free iPSC colony formation efficiency, ES, AP+ (iPSC state): 0.016%
  Estimated gene-free iPSC colony formation efficiency, ES, AP−: 0.037%
  Estimated gene-free iPSC colony formation efficiency, Fl, AP+: 0.000%
  Estimated gene-free iPSC colony formation efficiency, Fl, AP−: 0.000%
  Phenotype ES, AP+ (iPSC state) of individual cell clones following expansion, clones/total: 6/20
  Phenotype ES, AP+ (iPSC state) of individual cell clones following expansion, percent: 30%
  Phenotype ES, AP− of individual cell clones following expansion, clones/total: 14/20
  Phenotype ES, AP− of individual cell clones following expansion, percent: 70%
  Phenotype Fl, AP+ of individual cell clones following expansion, clones/total: 0/20
  Phenotype Fl, AP+ of individual cell clones following expansion, percent: 0%
  Phenotype Fl, AP− of individual cell clones following expansion, clones/total: 0/20
  Phenotype Fl, AP− of individual cell clones following expansion, percent: 0%
[1]; hiFBS
  Estimated gene-free iPSC colony formation efficiency, ES, AP+ (iPSC state): 0.008%
  Estimated gene-free iPSC colony formation efficiency, ES, AP−: 0.027%
  Estimated gene-free iPSC colony formation efficiency, Fl, AP+: 0.003%
  Estimated gene-free iPSC colony formation efficiency, Fl, AP−: 0.013%
  Phenotype ES, AP+ (iPSC state) of individual cell clones following expansion, clones/total: 3/19
  Phenotype ES, AP+ (iPSC state) of individual cell clones following expansion, percent: 16%
  Phenotype ES, AP− of individual cell clones following expansion, clones/total: 10/19
  Phenotype ES, AP− of individual cell clones following expansion, percent: 53%
  Phenotype Fl, AP+ of individual cell clones following expansion, clones/total: 1/19
  Phenotype Fl, AP+ of individual cell clones following expansion, percent: 5%
  Phenotype Fl, AP− of individual cell clones following expansion, clones/total: 5/19
  Phenotype Fl, AP− of individual cell clones following expansion, percent: 26%
[2]; Panstra 12, SACK agent Xn
  iPSC (gene-free iPSC reprogramming): Yes
[2]; DFBS
  Estimated gene-free iPSC colony formation efficiency, ES, AP+ (iPSC state): 0.000%
  Estimated gene-free iPSC colony formation efficiency, ES, AP−: 0.047%
  Estimated gene-free iPSC colony formation efficiency, Fl, AP+: 0.027%
  Estimated gene-free iPSC colony formation efficiency, Fl, AP−: 0.080%
  Phenotype ES, AP+ (iPSC state) of individual cell clones following expansion, clones/total: 0/23
  Phenotype ES, AP+ (iPSC state) of individual cell clones following expansion, percent: 0%
  Phenotype ES, AP− of individual cell clones following expansion, clones/total: 7/23
  Phenotype ES, AP− of individual cell clones following expansion, percent: 31%
  Phenotype Fl, AP+ of individual cell clones following expansion, clones/total: 4/23
  Phenotype Fl, AP+ of individual cell clones following expansion, percent: 17%
  Phenotype Fl, AP− of individual cell clones following expansion, clones/total: 12/23
  Phenotype Fl, AP− of individual cell clones following expansion, percent: 52%
[2]; KOSR
  Estimated gene-free iPSC colony formation efficiency, ES, AP+ (iPSC state): 0.067%
  Estimated gene-free iPSC colony formation efficiency, ES, AP−: 0.033%
  Estimated gene-free iPSC colony formation efficiency, Fl, AP+: 0.007%
  Estimated gene-free iPSC colony formation efficiency, Fl, AP−: 0.007%
  Phenotype ES, AP+ (iPSC state) of individual cell clones following expansion, clones/total: 10/17
  Phenotype ES, AP+ (iPSC state) of individual cell clones following expansion, percent: 59%
  Phenotype ES, AP− of individual cell clones following expansion, clones/total: 5/17
  Phenotype ES, AP− of individual cell clones following expansion, percent: 29%
  Phenotype Fl, AP+ of individual cell clones following expansion, clones/total: 1/17
  Phenotype Fl, AP+ of individual cell clones following expansion, percent: 6%
  Phenotype Fl, AP− of individual cell clones following expansion, clones/total: 1/17
  Phenotype Fl, AP− of individual cell clones following expansion, percent: 6%
[2]; hiFBS
  Estimated gene-free iPSC colony formation efficiency, ES, AP+ (iPSC state): 0.020%
  Estimated gene-free iPSC colony formation efficiency, ES, AP−: 0.033%
  Estimated gene-free iPSC colony formation efficiency, Fl, AP+: 0.000%
  Estimated gene-free iPSC colony formation efficiency, Fl, AP−: 0.073%
  Phenotype ES, AP+ (iPSC state) of individual cell clones following expansion, clones/total: 3/19
  Phenotype ES, AP+ (iPSC state) of individual cell clones following expansion, percent: 16%
  Phenotype ES, AP− of individual cell clones following expansion, clones/total: 5/19
  Phenotype ES, AP− of individual cell clones following expansion, percent: 26%
  Phenotype Fl, AP+ of individual cell clones following expansion, clones/total: 0/19
  Phenotype Fl, AP+ of individual cell clones following expansion, percent: 0%
  Phenotype Fl, AP− of individual cell clones following expansion, clones/total: 11/19
  Phenotype Fl, AP− of individual cell clones following expansion, percent: 58%
[2]; Pdx1− strain supplemented with Xn, p=0.024
  higher rate of iPSC-like colony production, average: 3 fold
[2]; Xn in the iPSC media at 1 mM, strain not given
  increase of the conversion rate to iPSC: approximately 3 fold
[2]; Xn supplementation (Table 6)
  increase of the average production efficiency of iPSC-like cell clones: ≤ 3 fold
Panstra 11
  SACK Type: NR
Panstra 56
  SACK Type: NR

— patent US8759098B2, “Method for cloning pluripotent stem cells” (Boston Biomedical Research Institute, Inc., priority 2009, dated 2014)
